Article PMC5940854, “Nitrothiophene carboxamides, a novel narrow spectrum antibacterial series: Mechanism of action and Efficacy” (Scientific Reports, 2018)
Converted amounts (≈) assume the structure as drawn. Blank lines part the entries; values can stand above or below the compound they belong to.

Tests used:
E. coli ∆acrB JW0451-2 = assay: Neutropenic thigh infection, E. coli ∆acrB; type: in vivo, BALB/c mice
E. coli BW25113 = assay: Neutropenic thigh infection, E. coli BW25113; type: in vivo, BALB/c mice; conditions: Study TI-2014-008, BW25113, 100mg/kg per oral
[1] = system: E. coli clinical isolates; assay: MIC on panel of E. coli clinical isolates; type: cell-based
ATCC25922 = assay: MIC on E. coli ATCC25922; type: cell-based; conditions: strain ATCC25922
Method: The inoculum used for all the experiments is derived from a single seed lot that is maintained as glycerol stocks at −80 °C and are sub cultured on LB plate for isolated colonies. Single colony of each strain is grown in M9 medium. All test compound stocks and dilutions are prepared in DMSO. Serial two-fold dilutions of compounds are prepared separately, with the concentrations ranging from 2 mg/mL to 0.015 mg/mL. To 150 µl (3–7 × 10^5 CFU/ml) of bacterial culture in 96 well microtitre plates, 3 μL compound from each of the dilutions is added to respective wells to obtain final concentrations ranging from 40 µg/mL to 0.3 µg/mL of the test compounds. Media control, culture control and appropriate reference drug controls are included. […] Growth is monitored by checking absorbance at 600 nm (A600). […] The samples from MIC and above concentrations are plated for MBC (Minimum Bactericidal Concentration). The samples are diluted 1:10 and plated on LB agar plates. […] The killing kinetics is determined by enumerating survivors at various time points following compound exposure. E. coli cells (~10^7 CFU/ml; A600 of 0.1) are treated with various concentrations (40 µg/mL to 0.3 µg/mL) of compounds in a 96-well microtitre plate. At various time intervals (0 to 8 h), 30 μl volumes of treated cultures are serially diluted and plated on LB agar plates. […] Data is expressed as the log10 CFU for each drug treatment.

Compound: O=C(O)c1cn(C2CC2)c2cc(N3CCNCC3)c(F)cc2c1=O [ciprofloxacin, reference compound]
Log10CFU Mean Diff. vs. Untreated Controls (E. coli ∆acrB JW0451-2; Study TI-2014-007, ∆acrB JW0451-2, 100mg/kg per oral, 6 hours post treatment): 3.477 Log10CFU
Log10CFU Mean Diff. vs. Untreated Controls (E. coli ∆acrB JW0451-2; Study TI-2014-008, ∆acrB JW0451-2, 100mg/kg per oral): 3.098 Log10CFU
Log10CFU Mean Diff. vs. Untreated Controls (E. coli BW25113): 3.212 Log10CFU

MIC50 ([1]; Escherichia coli, 75 E.coli clinical isolates, 50% clinical isolates): 16 µg/mL (≈ 33.5 µM)
MIC90 ([1]; Escherichia coli, 75 E.coli clinical isolates, 90% clinical isolates): > 64 µg/mL
MIC ([1]; strain SEC001): > 64 µg/mL
MIC ([1]; strain SEC002): 4 µg/mL (≈ 8.38 µM)
MIC ([1]; strain SEC003): > 64 µg/mL
MIC ([1]; strain SEC004): 4 µg/mL (≈ 8.38 µM)
MIC ([1]; strain SEC005): > 64 µg/mL
MIC ([1]; strain SEC006): 4 µg/mL (≈ 8.38 µM)
MIC ([1]; strain SEC007): > 64 µg/mL
MIC ([1]; strain SEC008): > 64 µg/mL
MIC ([1]; strain SEC011): > 64 µg/mL
MIC ([1]; strain SEC012): 4 µg/mL (≈ 8.38 µM)
MIC ([1]; strain SEC013): > 64 µg/mL
MIC ([1]; strain SEC014): > 64 µg/mL
MIC ([1]; strain SEC015): > 64 µg/mL
MIC ([1]; strain SEC016): 4 µg/mL (≈ 8.38 µM)
MIC ([1]; strain SEC017): > 64 µg/mL
MIC ([1]; strain SEC018): 0.5 µg/mL (≈ 1.05 µM)
MIC ([1]; strain SEC019): > 64 µg/mL
MIC ([1]; strain SEC020): 2 µg/mL (≈ 4.19 µM)
MIC ([1]; strain SEC021): > 64 µg/mL
MIC ([1]; strain SEC022): > 64 µg/mL
MIC ([1]; strain SEC023): 4 µg/mL (≈ 8.38 µM)
MIC ([1]; strain SEC024): > 64 µg/mL
MIC ([1]; strain SEC025): > 64 µg/mL
MIC ([1]; strain SEC026): 2 µg/mL (≈ 4.19 µM)
MIC ([1]; strain SEC028): 2 µg/mL (≈ 4.19 µM)
MIC ([1]; strain SEC029): 4 µg/mL (≈ 8.38 µM)
MIC ([1]; strain SEC031): > 64 µg/mL
MIC ([1]; strain SEC032): 4 µg/mL (≈ 8.38 µM)
MIC ([1]; strain SEC033): > 64 µg/mL
MIC ([1]; strain SEC034): 2 µg/mL (≈ 4.19 µM)
MIC ([1]; strain SEC035): > 64 µg/mL
MIC ([1]; strain SEC036): 4 µg/mL (≈ 8.38 µM)
MIC ([1]; strain SEC037): 4 µg/mL (≈ 8.38 µM)
MIC ([1]; strain SEC038): 4 µg/mL (≈ 8.38 µM)
MIC ([1]; strain SEC039): 2 µg/mL (≈ 4.19 µM)
MIC ([1]; strain SEC040): 32 µg/mL (≈ 67 µM)
MIC ([1]; strain SEC041): 4 µg/mL (≈ 8.38 µM)
MIC ([1]; strain SEC042): > 64 µg/mL
MIC ([1]; strain SEC043): > 64 µg/mL
MIC ([1]; strain SEC044): > 64 µg/mL
MIC ([1]; strain SEC045): 4 µg/mL (≈ 8.38 µM)
MIC ([1]; strain SEC046): 4 µg/mL (≈ 8.38 µM)
MIC ([1]; strain SEC047): > 64 µg/mL
MIC ([1]; strain SEC048): 4 µg/mL (≈ 8.38 µM)
MIC ([1]; strain SEC049): 4 µg/mL (≈ 8.38 µM)
MIC ([1]; strain SEC050): > 64 µg/mL
MIC ([1]; strain SEC051): 2 µg/mL (≈ 4.19 µM)
MIC ([1]; strain SEC052): 2 µg/mL (≈ 4.19 µM)
MIC ([1]; strain SEC053): > 64 µg/mL
MIC ([1]; strain SEC054): 8 µg/mL (≈ 16.8 µM)
MIC ([1]; strain SEC055): 2 µg/mL (≈ 4.19 µM)
MIC ([1]; strain SEC057): 4 µg/mL (≈ 8.38 µM)
MIC ([1]; strain SEC058): 4 µg/mL (≈ 8.38 µM)
MIC ([1]; strain SEC059): 2 µg/mL (≈ 4.19 µM)
MIC ([1]; strain SEC060): 32 µg/mL (≈ 67 µM)
MIC ([1]; strain SEC061): > 64 µg/mL
MIC ([1]; strain SEC062): 8 µg/mL (≈ 16.8 µM)
MIC ([1]; strain SEC063): 0.5 µg/mL (≈ 1.05 µM)
MIC ([1]; strain SEC064): > 64 µg/mL
MIC ([1]; strain SEC065): > 64 µg/mL
MIC ([1]; strain SEC067): 4 µg/mL (≈ 8.38 µM)
MIC ([1]; strain SEC068): > 64 µg/mL
MIC ([1]; strain SEC069): > 64 µg/mL
MIC ([1]; strain SEC070): > 64 µg/mL
MIC ([1]; strain SEC071): 32 µg/mL (≈ 67 µM)
MIC ([1]; strain SEC072): > 64 µg/mL
MIC ([1]; strain SEC073): > 64 µg/mL
MIC ([1]; strain SEC074): > 64 µg/mL
MIC ([1]; strain SEC075): > 64 µg/mL
MIC ([1]; strain SEC076): 4 µg/mL (≈ 8.38 µM)
MIC ([1]; strain SEC077): 16 µg/mL (≈ 33.5 µM)
MIC ([1]; strain SEC078): > 64 µg/mL
MIC ([1]; strain SEC079): > 64 µg/mL
MIC ([1]; strain SEC080): 4 µg/mL (≈ 8.38 µM)
MIC (ATCC25922): 2 µg/mL (≈ 4.19 µM)
Compound: CNC(C)C1CCC(N)C(OC2C(N)CC(N)C(OC3OCC(C)(O)C(NC)C3O)C2O)O1 (centres unmarked) [gentamicin, reference compound]
